In patent US9511048B2, “Use of flavone compound for prevention or treatment of obesity” (INDUSTRY-ACADEMIC COOPERATION FOUNDATION, YONSEI UNIVERSITY, priority 2012, dated 2016):

Assays:
3T3-L1 preadipocytes = assay: Inhibition of lipid production, Oil Red O staining of differentiated adipocytes; format: cell-based
Method: 3T3-L1 preadipocytes (American Type Culture Collection (ATCC), Manassas, Va., USA) were cultured in DMEM (Dulbecco's Modified Eagle's Medium) supplemented with 10% bovine calf serum, and seeded into 12-well microtiter plates with a density of 10^5 cells/well. Adipocyte differentiation was induced when the preadipocytes reached approximately 100% confluence after growing two more days at 90% confluence. For the experimental groups, induction of adipocyte differentiation was performed in the presence of 5,7-dimethoxyflavone at the concentration of 5, 10, or 20 μM dissolved in the culture medium containing dexamethasone, IBMX (3-isobutyl-1-methylxanthine), and insulin. Afterwards, cells of the experimental groups were maintained continuously in the presence of the same concentrations of 5,7-dimethoxyflavone dissolved in the culture medium containing 10% FBS and 0.1% insulin, replacing the medium every two days. For comparison, control cells were treated the same way as the cells of the experimental groups except for the 5,7-dimethoxyflavone treatment. On day 10 since induction of differentiation, fully differentiated adipocytes were stained with Oil Red O (Sigma, St. Louis, Mo., USA). Stained lipid droplets in the adipocytes were extracted with 100% isopropanol and subjected to the measurement of the absorbance at 500 nm using a spectrophotometer. […]

[1] = tested on: SREBP1c, C/EBP, FAS and ACC expression in 3T3-L1 adipocytes; assay: Western blot of lipogenic transcription factors and enzymes; format: cell-based; conditions: proteins harvested after eight days
Method: (§1) It was examined whether the expression of proteins involved in lipid production was reduced by 5,7-dimethoxyflavone treatments in 3T3-L1 adipocytes. 3T3-L1 adipocytes were induced to differentiate in the same manner as described in Example 1-1, and were lysed with a RIPA buffered solution containing a proteinase inhibitor cocktail. Protein samples were boiled for 5 minutes, loaded ([…]) on 10% SDS-PAGE gels and separated by electrophoresis. Separated proteins were transferred to the nitrocellulose membranes and subjected to western blot experiments. Protein-transferred membranes were reacted with primary antibodies, rinsed with TBST three times, 10 minutes each. The dilution ratio of primary antibodies was 1:1000. Membranes reacted with primary antibodies were followed with secondary antibody incubation (anti-rabbit horseradish) for 2 hours at room temperature. The dilution ratio of secondary antibodies was 1:5000. Protein bands were visualized with ECL western blotting detection reagents (Amersham, Tokyo, Japan). Proteins were harvested after eight days and subjected to western blot experiments.

[2] = tested on: UCP2 and UCP3 expression in 3T3-L1 adipocytes; assay: Western blot of thermogenic proteins; format: cell-based
Method: as §1
Proteins were harvested from the 3T3-L1 adipocytes differentiated as described in Example 1-1, and subjected to western blot experiments in the same manner as in Example 1-2.

[3] = tested on: C57BL/6 mice with high-fat diet-induced obesity; assay: Weight-reducing effect in the mouse model of high fat diet-induced obesity; format: in vivo; conditions: 20 mg/kg oral once a day; for food intake versus control groups: eight weeks; for rate of weight gain at the end of eight weeks compared to the control group: p<0.05
Method: Three week-old C57BL/6 mice were acclimated for one week and fed with high-fat diet (product #D12492, Research Diet Inc., New Brunswick, N.J., USA) for six weeks to induce obesity. Mice were randomly divided into experimental and control groups, in total of four groups, ten per each group. The experimental groups were orally administered with either 5,7-dimethoxyflavone or 5,7,4′-trimethoxyflavone suspended in 0.25% carboxymethyl cellulose at a dose of 20 mg/kg body weight, once a day at regular hours for eight weeks. For comparison, the control groups were orally administered with 0.25% carboxymethyl cellulose only in the same manner as the experimental groups. Food intake and body weight of each sample mouse were measured every week.

Compound: COc1cc(OC)c2c(=O)cc(-c3ccccc3)oc2c1 [5,7-dimethoxyflavone]
- lipid production in 3T3-L1 adipocytes (3T3-L1 preadipocytes; 5, 10 or 20 μM, day 10 after induction of differentiation, Oil Red O, absorbance 500 nm): suppresses lipid production in 3T3-L1 adipocytes effectively
- expression of SREBP1c, C/EBP, FAS and ACC [1]: reduction in the expression
- expression of UCP2 and UCP3 [2]: upregulated the expression of UCP2 and UCP3
- food intake versus control groups [3]: no significant difference
- rate of weight gain at the end of eight weeks compared to the control group [3]: significantly lower

Compound: COc1ccc(-c2cc(=O)c3c(OC)cc(OC)cc3o2)cc1 [5,7,4′-trimethoxyflavone]
- reduction in lipid production compared to the control (3T3-L1 preadipocytes; 20 μM, p<0.01): 28%
- food intake versus control groups [3]: no significant difference
- rate of weight gain at the end of eight weeks compared to the control group [3]: significantly lower
